In experiment [1] the target is T1, glycine site of the NMDA receptor (Rattus norvegicus, UniProt P35439).
T1 construct: from tissue
Description: binding affinity for the glycine site of the NMDA receptor (Jones et al.).

Experiment [2] addresses kainate site (non-NMDA receptor). Description: kainate site (non-NMDA receptor) binding affinity (London and Coyle).
The target of a further experiment is AMPA receptors. The experiment can be described thus: AMPA receptor binding affinity (Honore et al.).

One may read the IC50 as the concentration that gives 50% inhibition. Low values mean higher potency, high ones lower potency. In the case of `Cc1c([N+](=O)[O-])cc2[nH]c(=O)c(=O)[nH]c2c1CN(C)S(C)(=O)=O` [Compound 1, N-Methyl-N-(6-methyl-7-nitro-2,3-dioxo-1,2,3,4-tetrahydro-quinoxalin-5-ylmethyl)-methanesulfonamide], the figures for the IC50 (in experiment [1]; at AMPA receptors) were 100 nM and 210 nM, respectively. Moreover, the “IC50 KA” value in experiment [2] was 290 nM.
For the compound `Cc1c([N+](=O)[O-])cc2[nH]c(=O)c(=O)[nH]c2c1CN(C)S(=O)(=O)c1c(C(C)C)cc(C(C)C)cc1C(C)C` [Compound 3, 2,4,6-Triisopropyl-N-methyl-N-(6-methyl-7-nitro-2,3-dioxo-1,2,3,4-tetrahydro-quinoxalin-5-ylmethyl)-benzenesulfonamide], the IC50 in experiment [1] is above 1000 nM; at AMPA receptors, 2600 nM. Also, in experiment [2], the “IC50 KA” value came out at 4770 nM.
As to `Cc1c([N+](=O)[O-])cc2[nH]c(=O)c(=O)[nH]c2c1CN(C)S(=O)(=O)c1ccc2ccccc2c1` [Compound 4, Naphthalene-2-sulfonic acid methyl-(6-methyl-7-nitro-2,3-dioxo-1,2,3,4-tetrahydro-quinoxalin-5-ylmethyl)-amide], the results for the IC50 (in experiment [1]; on AMPA receptors) were above 1000 nM and 18000 nM, respectively. In experiment [2], the “IC50 KA” value turned out to be 26000 nM.
On to `Cc1ccc(S(=O)(=O)N(C)Cc2c(C)c([N+](=O)[O-])cc3[nH]c(=O)c(=O)[nH]c23)cc1` [Compound 2, 4,N-Dimethyl-N-(6-methyl-7-nitro-2,3-dioxo-1,2,3,4-tetrahydro-quinoxalin-5-ylmethyl)-benzenesulfonamide], for which the IC50 in experiment [1] is above 1000 nM; at AMPA receptors, 560 nM. In experiment [2], the “IC50 KA” value turned out to be 2630 nM.

(Values after patent US6096744A, “Sulfonamide derivatives of substituted quinoxaline 2,3-diones as glutamate receptor antagonists” (Warner-Lambert Company, priority 1998, dated 2000).)
